Results on 17 compounds are retold here after patent publication US12410208B2, “(2-acetamidyl)thio-beta-D-galactopyranoside derivatives” (Idorsia Pharmaceuticals Ltd, priority 2020, dated 2025).

Where two headings read alike, the source gives them in different places.

Test [1] addresses biotinylated human Gal-3 (hGal-3) (Homo sapiens, UniProt P17931). Nature of the test: Competitive binding assay: biotinylated hGal-3 binding to microplate-adsorbed asialofetuin (ASF), spectrophotometric. In outline:
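Serially diluted compounds competed with asialofetuin on the plate for biotinylated human Gal-3 during a 3 h incubation at 4° C. Streptavidin-peroxidase with ABTS gave the spectrophotometric signal. IC50 values were averaged over repeat runs.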

In test [2] the target is human Gal-1 (hGal-1) (Homo sapiens, UniProt P09382). Nature of the test: Competitive binding assay: biotinylated hGal-1 binding to microplate-adsorbed asialofetuin (ASF), spectrophotometric. Particulars: hGal-1 binding to asialofetuin; Table 15; R and S epimers of selected Examples also listed; read-out: IC50 (Galectin-1 inhibition). The essentials:
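Spectrophotometric competition readout with ABTS after streptavidin-peroxidase (80 ng/mL, 1 h, 4 °C) detection of bound biotinylated hGal-1.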

The mark [3] stands for this setting: Gal-3 inhibition, Table 4, read-out: IC50.
The mark [4] stands for this setting: Gal-3 inhibition, Table 5, read-out: IC50.
Where [5] appears, read: Table 12, hGal-3, read-out: IC50 (Gal-3 inhibition).
Where [6] appears, read: Gal-3 inhibition, Table 7, read-out: IC50.

Chain of human Gal-1 (hGal-1) (P09382 whole entry): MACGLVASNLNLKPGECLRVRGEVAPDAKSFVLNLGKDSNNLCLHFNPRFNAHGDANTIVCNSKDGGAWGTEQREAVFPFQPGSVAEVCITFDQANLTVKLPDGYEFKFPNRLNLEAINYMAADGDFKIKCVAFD
Chain of biotinylated human Gal-3 (hGal-3) (P17931 whole entry): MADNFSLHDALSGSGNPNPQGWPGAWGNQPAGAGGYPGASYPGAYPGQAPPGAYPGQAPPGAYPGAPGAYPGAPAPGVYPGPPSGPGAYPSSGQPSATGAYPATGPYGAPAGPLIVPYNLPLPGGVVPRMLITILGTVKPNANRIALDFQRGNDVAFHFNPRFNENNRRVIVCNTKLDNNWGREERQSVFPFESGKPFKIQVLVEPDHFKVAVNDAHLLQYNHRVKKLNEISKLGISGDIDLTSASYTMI

In the case of `CN1CCC(O)(C(S[C@@H]2O[C@H](CO)[C@H](O)[C@H](n3cc(-c4cc(F)c(F)c(F)c4)nn3)[C@H]2O)C(=O)N2CCCCC2)CC1` (stereo partly drawn) [Example 2.40.208., 2-(((2S,3R,4S,5R,6R)-3,5-Dihydroxy-6-(hydroxymethyl)-4-(4-(3,4,5-trifluorophenyl)-1H-1,2,3-triazol-1-yl)tetrahydro-2H-pyran-2-yl)thio)-2-(4-hydroxy-1-methylpiperidin-4-yl)-1-(piperidin-1-yl)ethan-1-one], the IC50 (usually the concentration at which inhibition is half-maximal) in test [1] (setting [3]) was determined as 30 nM; in test [2] it was 50 nM.
Take `CCN(CC1CCOCC1)C(=O)C(S[C@@H]1O[C@H](CO)[C@H](O)[C@H](n2cc(-c3cc(F)c(F)c(F)c3)nn2)[C@H]1O)C1(O)CCOCC1` (stereo partly drawn) [Example 2.41.214., 2-(((2S,3R,4S,5R,6R)-3,5-Dihydroxy-6-(hydroxymethyl)-4-(4-(3,4,5-trifluorophenyl)-1H-1,2,3-triazol-1-yl)tetrahydro-2H-pyran-2-yl)thio)-N-ethyl-2-(4-hydroxytetrahydro-2H-pyran-4-yl)-N-((tetrahydro-2H-pyran-4-yl)methyl)acetamide]: the values for the IC50 in test [1] (setting [3]) and in test [2] were 30 nM and 120 nM, respectively.
In the case of “(S)-2-(((2S,3R,4S,5R,6R)-3,5-Dihydroxy-6-(hydroxymethyl)-4-(4-(3,4,5-trifluorophenyl)-1H-1,2,3-triazol-1-yl)tetrahydro-2H-pyran-2-yl)thio)-2-(1-hydroxycyclohexyl)-N-methyl-N-(pyridin-2-ylmethyl)acetamide [Example 2.39.224S.]”, the IC50 in test [1] (setting [4]) came out at 60 nM; in test [2], 70 nM.
Consider “(S)-N-Cyclobutyl-2-(4,4-difluoro-1-hydroxycyclohexyl)-2-(((2S,3R,4S,5R,6R)-3,5-dihydroxy-6-(hydroxymethyl)-4-(4-(3,4,5-trifluorophenyl)-1H-1,2,3-triazol-1-yl)tetrahydro-2H-pyran-2-yl)thio)-N-methylacetamide [Example 2.44.206S.]”, for which the values for the IC50 in test [1] (setting [4]) and in test [2] were 40 nM and 190 nM, respectively.
Turning to `CN(C(=O)C(S[C@@H]1O[C@H](CO)[C@H](O)[C@H](n2cc(-c3cc(F)c(F)c(F)c3)nn2)[C@H]1O)C1(O)CCOCC1)C1COC1` (stereo partly drawn) [Example 2.41.235., 2-(((2S,3R,4S,5R,6R)-3,5-Dihydroxy-6-(hydroxymethyl)-4-(4-(3,4,5-trifluorophenyl)-1H-1,2,3-triazol-1-yl)tetrahydro-2H-pyran-2-yl)thio)-2-(4-hydroxytetrahydro-2H-pyran-4-yl)-N-methyl-N-(oxetan-3-yl)acetamide], the IC50 in test [1] (setting [4]) is 60 nM; in test [2] it was 90 nM.
As to `O=C([C@H](S[C@@H]1O[C@H](CO)[C@H](O)[C@H](n2cc(-c3cc(F)c(F)c(F)c3)nn2)[C@H]1O)C1(O)CCC(F)(F)CC1)N1CC(F)(F)C1` [Example 2.44.227R., (R)-2-(4,4-Difluoro-1-hydroxycyclohexyl)-1-(3,3-difluoroazetidin-1-yl)-2-(((2S,3R,4S,5R,6R)-3,5-dihydroxy-6-(hydroxymethyl)-4-(4-(3,4,5-trifluorophenyl)-1H-1,2,3-triazol-1-yl)tetrahydro-2H-pyran-2-yl)thio)ethan-1-one], the IC50 in test [1] (setting [4]) is 1050 nM; in test [2], 5130 nM.
As to `CO[C@@H]1[C@@H](n2cc(-c3cc(F)c(F)c(F)c3)nn2)[C@@H](O)[C@@H](CO)O[C@H]1S[C@@H](C(=O)N(C)c1ccccn1)C1(O)CCC(F)(F)CC1` [Example 2.41.233R.I.], the IC50 in test [1] (Table 9, hGal-3, read-out: IC50 (Gal-3 inhibition)) stood at 7240 nM; in test [2], 7100 nM.
On to `CCC(CC)NC(=O)C(S[C@@H]1O[C@H](CO)[C@H](O)[C@H](n2cc(-c3cc(F)c(F)c(F)c3)nn2)[C@H]1OC)C1(O)CCC(F)(F)CC1` (stereo partly drawn) [Example 2.44.250.I., 2-(4,4-Difluoro-1-hydroxycyclohexyl)-2-(((2S,3R,4S,5R,6R)-5-hydroxy-6-(hydroxymethyl)-3-methoxy-4-(4-(3,4,5-trifluorophenyl)-1H-1,2,3-triazol-1-yl)tetrahydro-2H-pyran-2-yl)thio)-N-(pentan-3-yl)acetamide], for which the IC50 in test [1] (setting [5]) amounted to 50 nM; in test [2], 270 nM.
`CN(C(=O)C(S[C@@H]1O[C@H](CO)[C@H](O)[C@H](n2cc(-c3cc(F)c(F)c(F)c3)nn2)[C@H]1O)C1(O)CCC(F)(F)CC1)C1CC1` (stereo partly drawn) [Example 2.44.221., N-Cyclopropyl-2-(4,4-difluoro-1-hydroxycyclohexyl)-2-(((2S,3R,4S,5R,6R)-3,5-dihydroxy-6-(hydroxymethyl)-4-(4-(3,4,5-trifluorophenyl)-1H-1,2,3-triazol-1-yl)tetrahydro-2H-pyran-2-yl)thio)-N-methylacetamide]: the IC50 in test [1] (setting [4]) came out at 30 nM; in test [2], 60 nM.
Take `O=C(C(S[C@@H]1O[C@H](CO)[C@H](O)[C@H](n2cc(-c3cc(F)c(F)c(F)c3)nn2)[C@H]1O)C1(O)CC(F)(F)C1)N1CCC1` (stereo partly drawn) [Example 2.33.206., 1-(Azetidin-1-yl)-2-(3,3-difluoro-1-hydroxycyclobutyl)-2-(((2S,3R,4S,5R,6R)-3,5-dihydroxy-6-(hydroxymethyl)-4-(4-(3,4,5-trifluorophenyl)-1H-1,2,3-triazol-1-yl)tetrahydro-2H-pyran-2-yl)thio)ethan-1-one]: the IC50 is 580 nM in test [1] (setting [4]) and 1710 nM in test [2].
Consider `CCN(C)C(=O)[C@@H](S[C@@H]1O[C@H](CO)[C@H](O)[C@H](n2cc(-c3cc(F)c(F)c(F)c3)nn2)[C@H]1O)C1CCOCC1` [Example 2.56.203S., (S)-2-(((2S,3R,4S,5R,6R)-3,5-dihydroxy-6-(hydroxymethyl)-4-(4-(3,4,5-trifluorophenyl)-1H-1,2,3-triazol-1-yl)tetrahydro-2H-pyran-2-yl)thio)-N-ethyl-N-methyl-2-(tetrahydro-2H-pyran-4-yl)acetamide, reference compound], for which the IC50 is 6860 nM in test [1] (Gal-3 inhibition, Table 1 (Reference Examples), read-out: IC50) and 36000 nM in test [2].
As for `CN(CC1CC1)C(=O)C(S[C@@H]1O[C@H](CO)[C@H](O)[C@H](n2cc(-c3cc(F)c(F)c(F)c3)nn2)[C@H]1O)C(O)Cc1ccccc1` (stereo partly drawn) [Example 2.64.218., N-(Cyclopropylmethyl)-2-(((2S,3R,4S,5R,6R)-3,5-dihydroxy-6-(hydroxymethyl)-4-(4-(3,4,5-trifluorophenyl)-1H-1,2,3-triazol-1-yl)tetrahydro-2H-pyran-2-yl)thio)-3-hydroxy-N-methyl-4-phenylbutanamide], the IC50 turned out to be 110 nM in test [1] (setting [6]) and 340 nM in test [2].
Turning to `CO[C@@H]1[C@@H](n2cc(-c3cc(F)c(F)c(F)c3)nn2)[C@@H](O)[C@@H](CO)O[C@H]1SC(C(=O)N(C)C)C1(O)CCC(F)(F)CC1` (stereo partly drawn) [Example 2.44.201.I., 2-(4,4-Difluoro-1-hydroxycyclohexyl)-2-(((2S,3R,4S,5R,6R)-5-hydroxy-6-(hydroxymethyl)-3-methoxy-4-(4-(3,4,5-trifluorophenyl)-1H-1,2,3-triazol-1-yl)tetrahydro-2H-pyran-2-yl)thio)-N,N-dimethylacetamide], the values for the IC50 in test [1] (setting [5]) and in test [2] were 60 nM and 250 nM, respectively.
For the compound `CO[C@@H]1[C@@H](n2cc(-c3cc(F)c(F)c(F)c3)nn2)[C@@H](O)[C@@H](CO)O[C@H]1SC(C(=O)N1CCC(F)(F)CC1)C1(O)CCC(C)(C)CC1` (stereo partly drawn) [Example 2.68.226.I., 1-(4,4-Difluoropiperidin-1-yl)-2-(1-hydroxy-4,4-dimethylcyclohexyl)-2-(((2S,3R,4S,5R,6R)-5-hydroxy-6-(hydroxymethyl)-3-methoxy-4-(4-(3,4,5-trifluorophenyl)-1H-1,2,3-triazol-1-yl)tetrahydro-2H-pyran-2-yl)thio)ethan-1-one], the IC50 in test [1] (Table 13, hGal-3, read-out: IC50 (Gal-3 inhibition)) is 100 nM; in test [2], 190 nM.
Take `CCN(C)C(=O)C(S[C@@H]1O[C@H](CO)[C@H](O)[C@H](n2cc(-c3cc(F)c(F)c(F)c3)nn2)[C@H]1O)C1(O)CCN(S(C)(=O)=O)CC1` (mixture of isomers) [Example 2.47.203., 2-(((2S,3R,4S,5R,6R)-3,5-Dihydroxy-6-(hydroxymethyl)-4-(4-(3,4,5-trifluorophenyl)-1H-1,2,3-triazol-1-yl)tetrahydro-2H-pyran-2-yl)thio)-N-ethyl-2-(4-hydroxy-1-(methylsulfonyl)piperidin-4-yl)-N-methylacetamide]: the IC50 in test [1] (Table 8, hGal-3, read-out: IC50 (Gal-3 inhibition)) came to 30 nM; in test [2], 110 nM.
As to `CN(CC1CC1)C(=O)C(S[C@@H]1O[C@H](CO)[C@H](O)[C@H](n2cc(-c3cc(F)c(F)c(F)c3)nn2)[C@H]1O)C(O)c1ccn(C)n1` (stereo partly drawn) [Example 2.65.218., N-(cyclopropylmethyl)-2-(((2S,3R,4S,5R,6R)-3,5-dihydroxy-6-(hydroxymethyl)-4-(4-(3,4,5-trifluorophenyl)-1H-1,2,3-triazol-1-yl)tetrahydro-2H-pyran-2-yl)thio)-3-hydroxy-N-methyl-3-(1-methyl-1H-pyrazol-3-yl)propanamide], the IC50 amounted to 690 nM in test [1] (setting [6]) and 3070 nM in test [2].
Take `CN(C)C(=O)[C@@H](S[C@@H]1O[C@H](CO)[C@H](O)[C@H](n2cc(-c3cc(F)c(F)c(F)c3)nn2)[C@H]1O)C1(O)CCOCC1` [Example 2.41.201S., (S)-2-(((2S,3R,4S,5R,6R)-3,5-Dihydroxy-6-(hydroxymethyl)-4-(4-(3,4,5-trifluorophenyl)-1H-1,2,3-triazol-1-yl)tetrahydro-2H-pyran-2-yl)thio)-2-(4-hydroxytetrahydro-2H-pyran-4-yl)-N,N-dimethylacetamide]: the IC50 turned out to be 60 nM in test [1] (setting [3]) and 210 nM in test [2].
